The values below come from PubChem BioAssay (NCI).

SMILES strings stand for the structures.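 Exposure lasted 48 hours, with cells grown in 96-well plates and compounds tested at five concentrations. GI50: concentration for 50% inhibition of growth. TGI: total growth inhibition.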

Test systems include A498 renal; HL-60(TB) leukemia; HOP-62 NSCLC; HS 578T breast; K-562 leukemia; MALME-3M melanoma; NCI-H522 lung; OVCAR-8 ovarian; T-47D breast; UO-31 renal.
Assay in all cases: NCI anticancer screen, dose series, 48 h

In the case of `CCOC(=O)c1c(C)n(Cc2ccc(OC)cc2)c2c1cc(O)c1[nH]c3c(c12)CCCC3`, the GI50 was 21.3 µM with A498 renal; 3.03 µM with HL-60(TB) leukemia; 10.5 µM in the experiment on HOP-62 NSCLC; 3.26 µM with HS 578T breast; 5.22 µM in the experiment on K-562 leukemia; 2.85 µM in the experiment on MALME-3M melanoma. The GI50 in the experiment with NCI-H522 lung was 1.75 µM; with OVCAR-8 ovarian, 3.05 µM; in the experiment with T-47D breast, 2.02 µM; in the experiment with UO-31 renal, 1.84 µM. Also, the TGI with A498 renal is 60.6 µM; in the experiment with HL-60(TB) leukemia, above 100 µM; in the experiment on HOP-62 NSCLC, 24.9 µM; in the experiment on HS 578T breast, 21.8 µM; in the experiment on K-562 leukemia it was above 100 µM; in the experiment with MALME-3M melanoma, 18.4 µM. Besides, the TGI with NCI-H522 lung was determined as 3.97 µM; in the experiment with OVCAR-8 ovarian, 10.9 µM; in the experiment with T-47D breast, 38.8 µM; with UO-31 renal, 4.05 µM.

For `CC(=O)[O][Hg][c]1c(C)c(C)c(C)c(C)c1C`, the GI50 with A498 renal was 2.68 µM; in the experiment with HL-60(TB) leukemia, 1.91 µM; in the experiment with HOP-62 NSCLC, 2.05 µM; with HS 578T breast, 0.899 µM; with K-562 leukemia it was 0.468 µM; in the experiment with MALME-3M melanoma, 1.24 µM. The GI50 with NCI-H522 lung is 1.41 µM; in the experiment on OVCAR-8 ovarian, 1.93 µM; with T-47D breast, 1.36 µM; in the experiment with UO-31 renal, 3.45 µM. In addition, the TGI stood at 5.4 µM in the experiment on A498 renal; 4.75 µM in the experiment on HL-60(TB) leukemia; 4.35 µM in the experiment with HOP-62 NSCLC; 3.52 µM in the experiment on HS 578T breast; 2.63 µM in the experiment on K-562 leukemia; 2.62 µM in the experiment on MALME-3M melanoma. The TGI in the experiment with NCI-H522 lung is 3.02 µM; in the experiment with OVCAR-8 ovarian, 3.88 µM; with T-47D breast, 3.74 µM; in the experiment with UO-31 renal it was 7.74 µM.

Turning to `CNC1C(=O)C(C)C(O)(C(CC(C)C(O)/C=C/C=C/CNC(=O)C(C)(C)C(O)\C(C)=C/C=C\C=C\Cc2cnc(C)o2)OC)C12C(=O)OC2COC` (stereo not given) (tested in a mixture with another compound), the TGI with A498 renal was above 79.3 µM; in the experiment on HL-60(TB) leukemia it was 3.48 µM; with HOP-62 NSCLC, 24.1 µM; with HS 578T breast it was above 100 µM; in the experiment with K-562 leukemia, 5.42 µM; with MALME-3M melanoma, above 87.9 µM. Besides, the TGI in the experiment with NCI-H522 lung was 21.2 µM; with OVCAR-8 ovarian, above 100 µM; in the experiment on T-47D breast, above 93.3 µM; with UO-31 renal, 67.3 µM.

With `COc1ccc(-c2nc(-c3nc4ccc(C)cc4[nH]3)c3ccccn23)cc1`, the GI50 with A498 renal was 2.47 µM; in the experiment with HL-60(TB) leukemia it was 2.58 µM; in the experiment on HOP-62 NSCLC it was 3.72 µM; with HS 578T breast it was 2.17 µM; in the experiment with K-562 leukemia it was 2.92 µM; in the experiment with MALME-3M melanoma it was 2.83 µM. Moreover, the GI50 was 1.95 µM in the experiment with NCI-H522 lung, 2.05 µM with OVCAR-8 ovarian, 2.27 µM with T-47D breast and 1.67 µM in the experiment with UO-31 renal. Further, the TGI was 9.65 µM with A498 renal; 6.53 µM with HL-60(TB) leukemia; above 100 µM with HOP-62 NSCLC; 6.05 µM with HS 578T breast; above 100 µM with K-562 leukemia; 8.62 µM in the experiment with MALME-3M melanoma. In addition, the TGI with NCI-H522 lung came out at 4.63 µM; in the experiment with OVCAR-8 ovarian, 6.15 µM; in the experiment on T-47D breast, 8.06 µM; with UO-31 renal, 6.09 µM.

Turning to `O=c1[nH]c(=O)n(C2CC(O)C(CS)O2)cc1F` (stereo not given), the TGI with A498 renal is above 86.2 µM; in the experiment with HL-60(TB) leukemia it was above 100 µM; with HOP-62 NSCLC, above 93.8 µM; in the experiment with HS 578T breast, above 100 µM; in the experiment on K-562 leukemia it was above 100 µM; with MALME-3M melanoma it was above 100 µM. In addition, the TGI was above 100 µM in the experiment on NCI-H522 lung, above 63.1 µM with OVCAR-8 ovarian, above 100 µM with T-47D breast and above 100 µM with UO-31 renal.

For the compound `C=C1C(=O)O[C@H]2[C@H]1CC/C(COC(=O)/C=C\C(=O)NCc1ccc(Cn3c(=O)sn(-c4ccc(C#N)cc4)c3=O)cc1)=C\CC[C@@]1(C)O[C@@H]21`, the GI50 in the experiment on A498 renal is 0.769 µM; in the experiment on HL-60(TB) leukemia, 0.961 µM; in the experiment on HOP-62 NSCLC, 2.52 µM; with HS 578T breast, 0.987 µM; in the experiment on K-562 leukemia, 0.707 µM; in the experiment on MALME-3M melanoma it was 0.83 µM. Besides, the GI50 is 0.714 µM with NCI-H522 lung, 0.802 µM in the experiment with OVCAR-8 ovarian, 0.836 µM in the experiment on T-47D breast and 0.468 µM in the experiment on UO-31 renal. Moreover, the TGI stood at 1.55 µM with A498 renal; 3.49 µM in the experiment on HL-60(TB) leukemia; 9 µM in the experiment with HOP-62 NSCLC; 2.79 µM in the experiment on HS 578T breast; 50 µM in the experiment with K-562 leukemia; 1.58 µM with MALME-3M melanoma. Further, the TGI in the experiment with NCI-H522 lung was found to be 1.65 µM; with OVCAR-8 ovarian, 2.7 µM; in the experiment on T-47D breast, 2.18 µM; in the experiment with UO-31 renal it was 1.07 µM.

As for `Cn1cc(C2=C(c3cn(CCCN=C(N)N)c4ccccc34)C(=O)NC2=O)c2ccccc21`, the GI50 with A498 renal, with HL-60(TB) leukemia, in the experiment on HOP-62 NSCLC, in the experiment with HS 578T breast, with K-562 leukemia and in the experiment with MALME-3M melanoma was above 25 µM throughout. The GI50 was above 22.2 µM in the experiment with NCI-H522 lung, above 25 µM in the experiment on OVCAR-8 ovarian, above 25 µM with T-47D breast and above 25 µM in the experiment with UO-31 renal. In addition, the TGI in the experiment on A498 renal, in the experiment on HL-60(TB) leukemia, in the experiment with HOP-62 NSCLC, in the experiment on HS 578T breast, in the experiment on K-562 leukemia and with MALME-3M melanoma was above 25 µM throughout. The TGI with NCI-H522 lung, with OVCAR-8 ovarian, with T-47D breast and with UO-31 renal was above 25 µM each time.

Regarding `COc1ccc(-n2cc(-c3cc(OC)c(OC)c(OC)c3)[nH]c2=S)cc1OC`, the GI50 in the experiment with A498 renal, with HL-60(TB) leukemia, in the experiment with HOP-62 NSCLC, in the experiment with HS 578T breast, in the experiment with K-562 leukemia and with MALME-3M melanoma was above 100 µM in each case. Further, the GI50 in the experiment with NCI-H522 lung, in the experiment on OVCAR-8 ovarian, with T-47D breast and with UO-31 renal was above 100 µM each time. Further, the TGI in the experiment on A498 renal, with HL-60(TB) leukemia, in the experiment on HOP-62 NSCLC, in the experiment on HS 578T breast, in the experiment with K-562 leukemia and with MALME-3M melanoma was above 100 µM each time. The TGI with NCI-H522 lung, in the experiment with OVCAR-8 ovarian, in the experiment with T-47D breast and with UO-31 renal was above 100 µM in each case.
